Results taken from the kinase profiling compilation of Christmann-Franck et al. (2016).

Legend:
Assay in all cases: radiometric filter-binding kinase assay, Kinase HotSpot
Details in all cases: compound 0.5 µM; ATP 10 µM
DYRK3 (human) = DYRK3 (human) (UniProt O43781)
DSTYK (human) = DSTYK (human) (UniProt Q6XUX3)
OXSR1 (human) = OXSR1 (human) (UniProt O95747)
NEK3 (human) = NEK3 (human) (UniProt P51956)
SRPK2 (human) = SRPK2 (human) (UniProt P78362)
EPHA6 (human) = EPHA6 (human) (UniProt Q9UF33)
MARK1 (human) = MARK1 (human) (UniProt Q9P0L2)
Chain of MARK1 (human) (Q9P0L2 whole entry, looked up): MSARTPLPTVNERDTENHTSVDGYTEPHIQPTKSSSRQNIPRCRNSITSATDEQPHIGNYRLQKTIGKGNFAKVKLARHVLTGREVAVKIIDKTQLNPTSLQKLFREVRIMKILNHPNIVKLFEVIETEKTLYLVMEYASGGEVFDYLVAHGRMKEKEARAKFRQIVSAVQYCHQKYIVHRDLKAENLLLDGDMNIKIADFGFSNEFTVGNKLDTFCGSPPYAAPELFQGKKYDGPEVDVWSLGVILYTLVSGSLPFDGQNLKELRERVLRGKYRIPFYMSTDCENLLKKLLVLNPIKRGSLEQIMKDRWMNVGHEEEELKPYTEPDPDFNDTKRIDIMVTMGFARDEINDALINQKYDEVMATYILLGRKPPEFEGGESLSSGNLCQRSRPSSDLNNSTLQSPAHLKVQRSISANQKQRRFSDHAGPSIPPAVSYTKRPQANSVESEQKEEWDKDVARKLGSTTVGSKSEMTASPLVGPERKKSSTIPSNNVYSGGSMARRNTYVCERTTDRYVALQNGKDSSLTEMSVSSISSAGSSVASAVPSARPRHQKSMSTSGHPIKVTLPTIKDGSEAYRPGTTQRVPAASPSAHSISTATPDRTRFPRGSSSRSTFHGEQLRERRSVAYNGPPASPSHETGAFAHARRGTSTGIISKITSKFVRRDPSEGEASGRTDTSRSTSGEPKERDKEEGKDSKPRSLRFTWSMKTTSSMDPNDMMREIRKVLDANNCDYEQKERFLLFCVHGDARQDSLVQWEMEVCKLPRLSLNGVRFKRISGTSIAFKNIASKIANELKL

SIK2 (human) = SIK2 (human) (UniProt Q9H0K1)
NLK (human) = NLK (human) (UniProt Q9UBE8)
ADRBK2 (human) = ADRBK2 (human) (UniProt P35626)
DAPK1 (human) = DAPK1 (human) (UniProt P53355)
[1] = system: FLT4 (human), P35916 [Q890H]
ALK (human) = ALK (human) (UniProt Q9UM73)
NUAK2 (human) = NUAK2 (human) (UniProt Q9H093)
CHEK1 (human) = CHEK1 (human) (UniProt O14757)
Chain of CHEK1 (human) (O14757 whole entry, looked up): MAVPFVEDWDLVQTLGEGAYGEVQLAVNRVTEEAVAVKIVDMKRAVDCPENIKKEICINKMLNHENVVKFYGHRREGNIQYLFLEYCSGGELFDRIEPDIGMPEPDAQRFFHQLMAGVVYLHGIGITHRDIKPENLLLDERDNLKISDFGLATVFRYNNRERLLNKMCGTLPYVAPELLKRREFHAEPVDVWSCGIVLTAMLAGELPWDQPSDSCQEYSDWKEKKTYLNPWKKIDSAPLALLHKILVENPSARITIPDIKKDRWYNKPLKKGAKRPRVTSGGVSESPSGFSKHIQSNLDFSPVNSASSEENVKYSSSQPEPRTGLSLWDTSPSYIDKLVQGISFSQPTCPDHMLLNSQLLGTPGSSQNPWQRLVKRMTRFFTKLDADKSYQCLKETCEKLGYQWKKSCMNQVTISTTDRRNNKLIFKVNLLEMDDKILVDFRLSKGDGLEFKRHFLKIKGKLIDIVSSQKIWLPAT

RPS6KA3 KD1 KD2 (human) = RPS6KA3 KD1 KD2 (human) (UniProt P51812)
CAMK2D (human) = CAMK2D (human) (UniProt Q13557)
ULK3 (human) = ULK3 (human) (UniProt Q6PHR2)
STK38 (human) = STK38 (human) (UniProt Q15208)
IRAK1 (human) = IRAK1 (human) (UniProt P51617)
CDK4 CCND1 (human) = CDK4 CCND1 (human) (UniProt P24385+P11802)
CDK7 CCNH MNAT1 (human) = CDK7 CCNH MNAT1 (human) (UniProt P50613+P51948+P51946)
GSG2 (human) = GSG2 (human) (UniProt Q8TF76)
MYO3B (human) = MYO3B (human) (UniProt Q8WXR4)
MAPK1 (human) = MAPK1 (human) (UniProt P28482)
WEE1 (human) = WEE1 (human) (UniProt P30291)
WNK2 (human) = WNK2 (human) (UniProt Q9Y3S1)
DCLK2 (human) = DCLK2 (human) (UniProt Q8N568)
BRSK2 (human) = BRSK2 (human) (UniProt Q8IWQ3)
Chain of BRSK2 (human) (Q8IWQ3 whole entry, looked up): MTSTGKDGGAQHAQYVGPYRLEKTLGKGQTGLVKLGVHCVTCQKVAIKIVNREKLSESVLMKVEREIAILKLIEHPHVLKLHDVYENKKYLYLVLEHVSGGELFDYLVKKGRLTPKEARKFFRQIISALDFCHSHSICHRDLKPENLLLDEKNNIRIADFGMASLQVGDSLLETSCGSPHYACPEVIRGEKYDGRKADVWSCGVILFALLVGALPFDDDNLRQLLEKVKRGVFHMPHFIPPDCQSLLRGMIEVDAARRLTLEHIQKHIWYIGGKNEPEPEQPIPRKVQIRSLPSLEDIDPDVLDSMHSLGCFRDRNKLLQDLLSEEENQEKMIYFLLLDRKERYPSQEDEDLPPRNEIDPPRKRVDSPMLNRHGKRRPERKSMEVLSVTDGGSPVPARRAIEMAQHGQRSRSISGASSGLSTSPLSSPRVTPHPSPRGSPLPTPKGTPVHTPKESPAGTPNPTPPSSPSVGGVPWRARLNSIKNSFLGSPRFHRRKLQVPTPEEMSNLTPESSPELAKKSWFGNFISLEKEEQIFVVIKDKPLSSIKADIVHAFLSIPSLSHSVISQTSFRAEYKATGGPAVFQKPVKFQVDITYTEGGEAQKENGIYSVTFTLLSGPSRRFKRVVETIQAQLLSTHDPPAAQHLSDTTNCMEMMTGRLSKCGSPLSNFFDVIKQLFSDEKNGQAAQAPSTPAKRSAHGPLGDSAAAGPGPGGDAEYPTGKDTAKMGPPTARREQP

TLK2 (human) = TLK2 (human) (UniProt Q86UE8)
[2] = system: MKNK1 (human), Q9BUB5 [T385D; 165-205 del]
FLT3 (human) = FLT3 (human) (UniProt P36888)
Chain of FLT3 (human) (P36888 whole entry, looked up): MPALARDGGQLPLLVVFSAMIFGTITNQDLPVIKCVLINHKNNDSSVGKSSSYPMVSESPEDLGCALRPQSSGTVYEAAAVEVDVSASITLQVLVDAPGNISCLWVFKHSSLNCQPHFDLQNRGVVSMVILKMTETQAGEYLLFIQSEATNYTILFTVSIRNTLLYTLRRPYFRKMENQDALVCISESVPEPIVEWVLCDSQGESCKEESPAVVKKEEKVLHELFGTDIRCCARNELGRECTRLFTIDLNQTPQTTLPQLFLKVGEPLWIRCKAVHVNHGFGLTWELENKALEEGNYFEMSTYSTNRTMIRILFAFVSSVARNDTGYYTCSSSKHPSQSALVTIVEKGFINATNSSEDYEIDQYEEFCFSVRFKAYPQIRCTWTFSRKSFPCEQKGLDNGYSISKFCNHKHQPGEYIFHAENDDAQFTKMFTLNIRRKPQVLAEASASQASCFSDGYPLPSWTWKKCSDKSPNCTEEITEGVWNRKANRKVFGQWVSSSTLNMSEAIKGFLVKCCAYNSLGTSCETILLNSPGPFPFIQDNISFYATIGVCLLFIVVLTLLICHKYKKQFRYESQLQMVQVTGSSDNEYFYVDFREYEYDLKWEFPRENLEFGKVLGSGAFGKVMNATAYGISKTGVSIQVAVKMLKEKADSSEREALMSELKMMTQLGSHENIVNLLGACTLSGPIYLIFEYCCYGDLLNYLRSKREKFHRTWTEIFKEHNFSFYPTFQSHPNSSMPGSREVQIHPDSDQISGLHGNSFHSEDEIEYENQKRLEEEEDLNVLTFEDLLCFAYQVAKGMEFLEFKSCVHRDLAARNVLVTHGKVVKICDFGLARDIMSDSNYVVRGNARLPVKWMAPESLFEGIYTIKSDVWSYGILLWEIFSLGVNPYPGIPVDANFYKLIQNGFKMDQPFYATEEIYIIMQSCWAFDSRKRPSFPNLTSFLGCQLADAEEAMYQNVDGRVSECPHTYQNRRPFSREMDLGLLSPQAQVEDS

AKT2 (human) = AKT2 (human) (UniProt P31751)
STK4 (human) = STK4 (human) (UniProt Q13043)
MATK (human) = MATK (human) (UniProt P42679)
Chain of MATK (human) (P42679 whole entry, looked up): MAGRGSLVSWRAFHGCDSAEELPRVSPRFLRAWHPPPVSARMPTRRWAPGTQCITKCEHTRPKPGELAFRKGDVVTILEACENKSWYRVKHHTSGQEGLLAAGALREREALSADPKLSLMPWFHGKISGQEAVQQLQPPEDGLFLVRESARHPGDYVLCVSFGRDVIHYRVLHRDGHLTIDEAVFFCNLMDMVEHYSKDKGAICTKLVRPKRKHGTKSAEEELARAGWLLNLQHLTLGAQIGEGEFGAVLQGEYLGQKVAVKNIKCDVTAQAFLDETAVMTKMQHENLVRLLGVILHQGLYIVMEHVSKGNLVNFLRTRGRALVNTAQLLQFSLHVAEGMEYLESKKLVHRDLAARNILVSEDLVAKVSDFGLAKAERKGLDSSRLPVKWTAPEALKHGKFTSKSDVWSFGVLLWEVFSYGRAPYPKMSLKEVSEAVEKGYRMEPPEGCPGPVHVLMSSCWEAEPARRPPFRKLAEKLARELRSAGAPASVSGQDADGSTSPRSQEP

TNK2 (human) = TNK2 (human) (UniProt Q07912)
TTK (human) = TTK (human) (UniProt P33981)
ROCK1 (human) = ROCK1 (human) (UniProt Q13464)
PDGFRA (human) = PDGFRA (human) (UniProt P16234)
PBK (human) = PBK (human) (UniProt Q96KB5)
Chain of PBK (human) (Q96KB5 whole entry, looked up): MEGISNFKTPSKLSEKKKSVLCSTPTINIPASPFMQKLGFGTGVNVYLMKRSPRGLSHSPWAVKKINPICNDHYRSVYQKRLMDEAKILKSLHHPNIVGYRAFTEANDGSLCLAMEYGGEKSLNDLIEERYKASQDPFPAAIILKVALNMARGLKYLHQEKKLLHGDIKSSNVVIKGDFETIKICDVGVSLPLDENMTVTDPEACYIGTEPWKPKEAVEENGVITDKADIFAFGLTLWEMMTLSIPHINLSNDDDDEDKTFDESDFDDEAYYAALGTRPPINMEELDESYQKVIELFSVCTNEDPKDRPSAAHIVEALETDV

PHKG2 (human) = PHKG2 (human) (UniProt P15735)
CDK4 CCND3 (human) = CDK4 CCND3 (human) (UniProt P30281+P11802)

Chain of NEK3 (human) (P51956 whole entry, looked up): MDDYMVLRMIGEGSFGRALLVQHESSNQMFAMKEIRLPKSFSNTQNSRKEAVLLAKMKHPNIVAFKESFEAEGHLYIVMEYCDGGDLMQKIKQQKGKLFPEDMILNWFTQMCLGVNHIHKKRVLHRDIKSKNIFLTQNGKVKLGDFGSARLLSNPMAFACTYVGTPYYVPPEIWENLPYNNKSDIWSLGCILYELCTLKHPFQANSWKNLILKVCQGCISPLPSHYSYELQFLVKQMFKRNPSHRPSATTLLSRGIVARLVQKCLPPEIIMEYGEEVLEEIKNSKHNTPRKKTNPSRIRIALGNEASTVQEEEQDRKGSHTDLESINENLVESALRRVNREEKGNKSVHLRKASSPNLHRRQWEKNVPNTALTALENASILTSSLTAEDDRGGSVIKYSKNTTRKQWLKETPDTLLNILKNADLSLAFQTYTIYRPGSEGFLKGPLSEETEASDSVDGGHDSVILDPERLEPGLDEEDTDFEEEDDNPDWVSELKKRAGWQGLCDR
Chain of SRPK2 (human) (P78362 whole entry, looked up): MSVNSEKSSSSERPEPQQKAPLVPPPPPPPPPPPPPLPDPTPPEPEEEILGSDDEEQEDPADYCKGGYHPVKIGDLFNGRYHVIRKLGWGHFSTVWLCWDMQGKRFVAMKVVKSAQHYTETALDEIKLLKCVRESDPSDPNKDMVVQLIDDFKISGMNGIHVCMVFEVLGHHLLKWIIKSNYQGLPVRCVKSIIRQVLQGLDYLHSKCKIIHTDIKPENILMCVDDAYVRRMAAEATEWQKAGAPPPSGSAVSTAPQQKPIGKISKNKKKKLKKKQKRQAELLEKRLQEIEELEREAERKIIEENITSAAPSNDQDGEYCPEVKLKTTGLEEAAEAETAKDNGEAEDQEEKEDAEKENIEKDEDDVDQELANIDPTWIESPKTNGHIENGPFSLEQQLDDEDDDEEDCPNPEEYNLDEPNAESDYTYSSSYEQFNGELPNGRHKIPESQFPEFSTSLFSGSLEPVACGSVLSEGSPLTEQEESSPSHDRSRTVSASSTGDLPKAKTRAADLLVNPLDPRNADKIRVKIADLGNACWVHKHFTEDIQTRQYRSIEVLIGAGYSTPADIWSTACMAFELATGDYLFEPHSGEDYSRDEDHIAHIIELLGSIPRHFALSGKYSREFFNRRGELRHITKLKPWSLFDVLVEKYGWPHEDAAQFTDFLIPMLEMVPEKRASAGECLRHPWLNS

Structure (SMILES): Cc1cncc2cccc(S(=O)(=O)N3CCCN(C(=O)CN)C[C@H]3C)c12
- residual activity (DYRK3 (human)): 107%
- residual activity (DSTYK (human)): 105%
- residual activity (OXSR1 (human)): 99.4%
- residual activity (NEK3 (human)): 91.1%
- residual activity (SRPK2 (human)): 97.1%
- residual activity (EPHA6 (human)): 92.2%
- residual activity (MARK1 (human)): 89.7%
- residual activity (SIK2 (human)): 89.4%
- residual activity (NLK (human)): 99.6%
- residual activity (ADRBK2 (human)): 95%
- residual activity (DAPK1 (human)): 97.9%
- residual activity [1]: 113%
- residual activity (ALK (human)): 113%
- residual activity (NUAK2 (human)): 125%
- residual activity (CHEK1 (human)): 100%
- residual activity (RPS6KA3 KD1 KD2 (human)): 91.8%
- residual activity (CAMK2D (human)): 108%
- residual activity (ULK3 (human)): 83.2%
- residual activity (STK38 (human)): 97.1%
- residual activity (IRAK1 (human)): 135%
- residual activity (CDK4 CCND1 (human)): 114%
- residual activity (CDK7 CCNH MNAT1 (human)): 98%
- residual activity (GSG2 (human)): 99.4%
- residual activity (MYO3B (human)): 104%
- residual activity (MAPK1 (human)): 103%
- residual activity (WEE1 (human)): 96.3%
- residual activity (WNK2 (human)): 98%
- residual activity (DCLK2 (human)): 89%
- residual activity (BRSK2 (human)): 85.4%
- residual activity (TLK2 (human)): 97.7%
- residual activity [2]: 90.5%
- residual activity (FLT3 (human)): 90.1%
- residual activity (AKT2 (human)): 97.2%
- residual activity (STK4 (human)): 95.4%
- residual activity (MATK (human)): 94.4%
- residual activity (TNK2 (human)): 84.5%
- residual activity (TTK (human)): 111%
- residual activity (ROCK1 (human)): 3.44%
- residual activity (PDGFRA (human)): 93.5%
- residual activity (PBK (human)): 98.6%
- residual activity (PHKG2 (human)): 90.5%
- residual activity (CDK4 CCND3 (human)): 105%

Structure (SMILES): CS(=O)(=O)CCNCc1ccc(-c2ccc3ncnc(Nc4ccc(OCc5cccc(F)c5)c(Cl)c4)c3c2)o1
- residual activity (DYRK3 (human)): 90.2%
- residual activity (DSTYK (human)): 108%
- residual activity (OXSR1 (human)): 105%
- residual activity (NEK3 (human)): 99.6%
- residual activity (SRPK2 (human)): 88%
- residual activity (EPHA6 (human)): 115%
- residual activity (MARK1 (human)): 149%
- residual activity (SIK2 (human)): 101%
- residual activity (NLK (human)): 108%
- residual activity (ADRBK2 (human)): 96.7%
- residual activity (DAPK1 (human)): 107%
- residual activity [1]: 93.3%
- residual activity (ALK (human)): 104%
- residual activity (NUAK2 (human)): 95.1%
- residual activity (CHEK1 (human)): 100%
- residual activity (RPS6KA3 KD1 KD2 (human)): 105%
- residual activity (CAMK2D (human)): 92.5%
- residual activity (ULK3 (human)): 106%
- residual activity (STK38 (human)): 101%
- residual activity (IRAK1 (human)): 98.8%
- residual activity (CDK4 CCND1 (human)): 94.8%
- residual activity (CDK7 CCNH MNAT1 (human)): 109%
- residual activity (GSG2 (human)): 66.5%
- residual activity (MYO3B (human)): 96.1%
- residual activity (MAPK1 (human)): 102%
- residual activity (WEE1 (human)): 97.5%
- residual activity (WNK2 (human)): 102%
- residual activity (DCLK2 (human)): 101%
- residual activity (BRSK2 (human)): 106%
- residual activity (TLK2 (human)): 83.9%
- residual activity [2]: 94.5%
- residual activity (FLT3 (human)): 92.6%
- residual activity (AKT2 (human)): 105%
- residual activity (STK4 (human)): 99.4%
- residual activity (MATK (human)): 75.9%
- residual activity (TNK2 (human)): 97.5%
- residual activity (TTK (human)): 102%
- residual activity (ROCK1 (human)): 108%
- residual activity (PDGFRA (human)): 108%
- residual activity (PBK (human)): 105%
- residual activity (PHKG2 (human)): 99.5%
- residual activity (CDK4 CCND3 (human)): 104%

Structure (SMILES): O=C1Nc2ccc(Br)cc2/C1=C\c1cc2c([nH]1)CCCC2
- residual activity (DYRK3 (human)): 94%
- residual activity (DSTYK (human)): 93.1%
- residual activity (OXSR1 (human)): 96.7%
- residual activity (NEK3 (human)): 86.7%
- residual activity (SRPK2 (human)): 90.6%
- residual activity (EPHA6 (human)): 89.2%
- residual activity (MARK1 (human)): 69%
- residual activity (SIK2 (human)): 92.7%
- residual activity (ADRBK2 (human)): 89.9%
- residual activity (DAPK1 (human)): 111%
- residual activity [1]: 56.1%
- residual activity (ALK (human)): 88.5%
- residual activity (NUAK2 (human)): 133%
- residual activity (CHEK1 (human)): 81.8%
- residual activity (RPS6KA3 KD1 KD2 (human)): 80.9%
- residual activity (CAMK2D (human)): 84.2%
- residual activity (ULK3 (human)): 55.5%
- residual activity (STK38 (human)): 80.1%
- residual activity (IRAK1 (human)): 97%
- residual activity (CDK4 CCND1 (human)): 97.9%
- residual activity (CDK7 CCNH MNAT1 (human)): 93.6%
- residual activity (GSG2 (human)): 88%
- residual activity (MYO3B (human)): 55.1%
- residual activity (MAPK1 (human)): 103%
- residual activity (WEE1 (human)): 95.9%
- residual activity (WNK2 (human)): 101%
- residual activity (DCLK2 (human)): 98.2%
- residual activity (BRSK2 (human)): 93.8%
- residual activity (TLK2 (human)): 101%
- residual activity [2]: 106%
- residual activity (FLT3 (human)): 3.86%
- residual activity (AKT2 (human)): 90.3%
- residual activity (STK4 (human)): 44.1%
- residual activity (MATK (human)): 94.2%
- residual activity (TNK2 (human)): 92.8%
- residual activity (TTK (human)): 95.1%
- residual activity (ROCK1 (human)): 98.8%
- residual activity (PDGFRA (human)): 76.2%
- residual activity (PBK (human)): 87.8%
- residual activity (PHKG2 (human)): 90.5%
- residual activity (CDK4 CCND3 (human)): 99.8%

Structure (SMILES): Fc1ccc(-c2nc3n(c2-c2ccncc2)CCS3)cc1
- residual activity (DYRK3 (human)): 103%
- residual activity (DSTYK (human)): 105%
- residual activity (OXSR1 (human)): 92.5%
- residual activity (NEK3 (human)): 96.9%
- residual activity (EPHA6 (human)): 94.7%
- residual activity (MARK1 (human)): 102%
- residual activity (SIK2 (human)): 108%
- residual activity (NLK (human)): 41.1%
- residual activity (ADRBK2 (human)): 95%
- residual activity (DAPK1 (human)): 100%
- residual activity [1]: 112%
- residual activity (ALK (human)): 124%
- residual activity (NUAK2 (human)): 135%
- residual activity (CHEK1 (human)): 95.9%
- residual activity (RPS6KA3 KD1 KD2 (human)): 107%
- residual activity (CAMK2D (human)): 97.1%
- residual activity (ULK3 (human)): 79.2%
- residual activity (STK38 (human)): 88%
- residual activity (IRAK1 (human)): 125%
- residual activity (CDK4 CCND1 (human)): 114%
- residual activity (CDK7 CCNH MNAT1 (human)): 95%
- residual activity (GSG2 (human)): 104%
- residual activity (MYO3B (human)): 102%
- residual activity (MAPK1 (human)): 106%
- residual activity (WEE1 (human)): 92.2%
- residual activity (WNK2 (human)): 104%
- residual activity (DCLK2 (human)): 97.4%
- residual activity (TLK2 (human)): 94.7%
- residual activity [2]: 102%
- residual activity (FLT3 (human)): 94.7%
- residual activity (AKT2 (human)): 95.9%
- residual activity (MATK (human)): 89.4%
- residual activity (TNK2 (human)): 98%
- residual activity (TTK (human)): 100%
- residual activity (ROCK1 (human)): 103%
- residual activity (PDGFRA (human)): 98%
- residual activity (PBK (human)): 100%
- residual activity (PHKG2 (human)): 104%
- residual activity (CDK4 CCND3 (human)): 94.9%
